According to patent publication US20250215029A1 (Recludix Pharma, Inc., priority 2022, published 2025):
Like-named read-outs stand apart in the source and are kept apart here.

Columns and labels:
[1] = target: T1, Recombinant STAT3 protein (STAT3 (G127-I722)) (Homo sapiens, UniProt P40763); assay: STAT3 Fluorescence Polarization (FP) Assay; type: binding; conditions: probe 5-FAM-GpYLPQTV-NH2 2 nM, 45-minute incubation
T1 construct: Recombinant STAT3 protein (STAT3 (G127-I722))
Protocol: STAT3 Fluorescence Polarization (FP) Assay
An FP assay was developed to determine IC50 values for test substances. Recombinant STAT3 protein (STAT3 (G127-I722)) at 25 nM was combined with a fluorescently labeled, phosphotyrosine peptide probe (5-FAM-GpYLPQTV-NH2) at 2 nM in FP buffer (10 mM HEPES pH 7.4, 50 mM NaCl, 1 mM EDTA, 0.05% Tween 20.2 mM DTT). 50 μL of STAT3-probe mixture was added to serial diluted compounds in black, 96-well plates (Greiner BioOne 655076) to a final concentration of 1% DMSO. Reaction components were mixed, and FP was measured after 45-minute incubation at room temperature using a Tecan Spark multimode plate reader. FP signal (mP) was plotted against the log concentration of the test substances and IC50 values were calculated by nonlinear regression analysis using GraphPad Prism software. For STAT3 FP assay, A=≤100 nM; B=>100-1000 nM; C=>1-10 μM; and D=>10 μM.

[2] = target: T2, Recombinant STAT6 protein (STAT6 (W123-T658)) (Homo sapiens, UniProt P42226); assay: STAT6 Fluorescence Polarization (FP) Assay; type: binding; conditions: probe 5-FAM-Ap[…]-NH2 2 nM, 45-minute incubation
T2 construct: Recombinant STAT6 protein (STAT6 (W123-T658))
T2 sequence (P42226 123-658): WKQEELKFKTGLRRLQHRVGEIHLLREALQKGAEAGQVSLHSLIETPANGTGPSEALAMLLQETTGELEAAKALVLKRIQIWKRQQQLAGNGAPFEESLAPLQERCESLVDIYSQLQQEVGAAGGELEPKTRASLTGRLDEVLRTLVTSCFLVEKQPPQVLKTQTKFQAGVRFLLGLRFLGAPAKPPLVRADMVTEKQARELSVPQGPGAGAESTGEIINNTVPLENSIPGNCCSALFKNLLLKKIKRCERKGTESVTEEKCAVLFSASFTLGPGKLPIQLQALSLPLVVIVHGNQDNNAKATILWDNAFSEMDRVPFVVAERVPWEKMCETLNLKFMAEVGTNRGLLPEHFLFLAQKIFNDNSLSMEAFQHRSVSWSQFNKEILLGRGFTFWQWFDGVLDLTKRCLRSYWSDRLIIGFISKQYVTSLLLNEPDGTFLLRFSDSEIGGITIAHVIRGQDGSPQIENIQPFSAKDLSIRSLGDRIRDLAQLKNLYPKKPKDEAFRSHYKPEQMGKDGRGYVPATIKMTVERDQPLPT
Protocol: STAT6 Fluorescence Polarization (FP) Assay
An FP assay was developed to determine IC50 values for test substances. Recombinant STAT6 protein (STAT6 (W123-T658)) at 250 nM was combined with a fluorescently labeled, phosphotyrosine peptide probe (5-FAM-Ap[…]-NH2) at 2 nM in FP buffer (10 mM HEPES pH 7.4, 50 mM NaCl, 1 mM EDTA, 0.05% Tween 20, 2 mM DTT). 50 μL of STAT6-probe mixture was added to serial diluted compounds in black, 96-well plates (Greiner BioOne 655076) to a final concentration of 1% DMSO. Reaction components were mixed, and FP was measured after 45-minute incubation at room temperature using a Tecan Spark multimode plate reader. FP signal (mP) was plotted against the log concentration of the test substances and IC50 values were calculated by nonlinear regression analysis using GraphPad Prism software. For STAT6 FP assay, A=≤300 nM; B=>300-3000 nM; C=>3-30 μM; and D=>30 μM.

[3] = STAT3 25 nM, read-out: STAT3 (FP assay IC50)
[4] = STAT6 250 nM, read-out: STAT6 (FP assay IC50)
[5] = STAT3 (G127-I722) 25 nM, read-out: STAT3 (FP assay IC50 class)
[6] = STAT6 (W123-T658) 250 nM, read-out: STAT6 (FP assay IC50 class)

T1 sequence (P40763 127-722): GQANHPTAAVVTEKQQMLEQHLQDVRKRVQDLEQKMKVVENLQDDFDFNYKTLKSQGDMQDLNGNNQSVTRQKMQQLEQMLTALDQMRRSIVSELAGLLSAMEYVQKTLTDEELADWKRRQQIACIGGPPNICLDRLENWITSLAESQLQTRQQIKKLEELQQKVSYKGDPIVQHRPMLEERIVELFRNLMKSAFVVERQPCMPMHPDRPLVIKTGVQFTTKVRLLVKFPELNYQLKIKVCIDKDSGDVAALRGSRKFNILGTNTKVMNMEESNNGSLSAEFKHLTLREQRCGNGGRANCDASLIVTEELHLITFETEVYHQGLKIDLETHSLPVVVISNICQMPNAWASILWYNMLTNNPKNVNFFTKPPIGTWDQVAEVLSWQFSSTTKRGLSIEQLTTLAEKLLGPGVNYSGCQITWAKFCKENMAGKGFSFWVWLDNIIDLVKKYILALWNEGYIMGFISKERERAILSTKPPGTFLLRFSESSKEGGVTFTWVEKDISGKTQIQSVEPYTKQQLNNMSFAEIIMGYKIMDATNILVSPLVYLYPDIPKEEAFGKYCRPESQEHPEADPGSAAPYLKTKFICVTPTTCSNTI

IC50 [1, 3]	IC50 [2, 4]	IC50 [1, 5]	IC50 [2, 6]	Compound
1 to 10 µM	≤ 0.3 µM			N#C[C@H]1CN(C(=O)[C@@H]2CC[C@@H]3CCCC[C@H](NC(=O)c4cc5cc(C(F)(F)P(=O)(O)O)ccc5s4)C(=O)N32)C[C@@H]1C1CCCCC1 (racemic) [Compound 91, ((2-(((3S,6S,10aS)-3-(rel-(trans)-3-cyano-4-cyclohexyl-pyrrolidine-1-carbonyl)-5-oxodecahydropyrrolo [1,2-a]azocin-6-yl)carbamoyl)benzo[b]thiophen-5-yl)difluoromethyl) phosphonic acid]
		0.1 to 1 µM	3 to 30 µM	O=C(N[C@H]1CCC[C@H]2CC[C@@H](C(=O)N3CC(c4ncccc4F)C3)N2C1=O)c1cc2cc(C(F)P(=O)(O)O)ccc2s1 (stereo partly drawn) [Compound 623, (fluoro(2-(((3S,6S,9aS)-3-(3-(3-fluoropyridin-2-yl)azetidine-1-carbonyl)-5-oxooctahydro-1H-pyrrolo[1,2-a]azepin-6-yl)carbamoyl)benzo [b]thiophen-5-yl)methyl) phosphonic acid]
		1 to 10 µM	0.3 to 3 µM	Cn1ccc(C2(F)CCN(C(=O)[C@@H]3CC[C@@H]4CCCC[C@H](NC(=O)c5ccc6ccc(C(F)P(=O)(O)O)cc6c5)C(=O)N43)C2)cc1=O (stereo partly drawn) [Compound 903, (fluoro(7-(((3S,6S,10aS)-3-(3-fluoro-3-(1-methyl-2-oxo-1,2-dihydropyridin-4-yl)pyrrolidine-1-carbonyl)-5-oxodecahydropyrrolo [1,2-a]azocin-6-yl)carbamoyl)naphthalen-2-yl)methyl) phosphonic acid]
		1 to 10 µM	3 to 30 µM	O=C(N[C@H]1CCCC[C@H]2CC[C@@H](C(=O)N[C@@H](CO)Cc3cccnc3)N2C1=O)c1cc2cc(C(F)(F)P(=O)(O)O)ccc2s1 [Compound 727, (difluoro(2-(((3S,6S,10aS)-3-(((R)-1-hydroxy-3-(pyridin-3-yl)propan-2-yl)carbamoyl)-5-oxodecahydropyrrolo [1,2-a]azocin-6-yl)carbamoyl)benzo [b]thiophen-5-yl)methyl) phosphonic acid]
		1 to 10 µM	3 to 30 µM	CC(C)n1cc(N(C)C(=O)[C@@H]2CC[C@@H]3CCCC[C@H](NC(=O)c4cc5cc(C(F)(F)P(=O)(O)O)ccc5s4)C(=O)N32)cn1 [Compound 793, (difluoro(2-(((3S,6S,10aS)-3-((1-isopropyl-1H-pyrazol-4-yl)(methyl)carbamoyl)-5-oxodecahydropyrrolo[1,2-a]azocin-6-yl)carbamoyl)benzo [b]thiophen-5-yl)methyl) phosphonic acid]
< 0.1 µM	0.3 to 3 µM			Cn1c(C2CN(C(=O)[C@@H]3CC[C@@H]4CCCC[C@H](NC(=O)c5cc6cc(C(F)(F)P(=O)(O)O)ccc6s5)C(=O)N43)C2)nc2ccccc21 [Compound 38, (difluoro(2-(((3S,6S,10aS)-3-(3-(1-methyl-1H-benzo[d]imidazol-2-yl)azetidine-1-carbonyl)-5-oxodecahydropyrrolo [1,2-a]azocin-6-yl)carbamoyl)benzo[b]thiophen-5-yl)methyl) phosphonic acid]
		1 to 10 µM	≤ 0.3 µM	COc1cccc([C@@H]2CN(C(=O)[C@@H]3CC[C@@H]4CCCC[C@H](NC(=O)c5cc6cc(C(F)P(=O)(O)O)ccc6s5)C(=O)N43)C3(CC3)[C@H]2C#N)c1 (relative stereo) [Compound 231, ((2-(((3S,6S,10aS)-3-((rel-trans)-7-cyano-6-(3-methoxyphenyl)-4-azaspiro[2.4]heptane-4-carbonyl)-5-oxodecahydropyrrolo[1,2-a]azocin-6-yl)carbamoyl)benzo[b]thiophen-5-yl)fluoromethyl)phosphonic acid]
		1 to 10 µM	3 to 30 µM	Cc1cc(=O)[nH]cc1C1CN(C(=O)[C@@H]2CC[C@@H]3CCC[C@H](NC(=O)c4cc5cc(CP(=O)(O)O)ccc5s4)C(=O)N32)C1 [Compound 646, ((2-(((3S,6S,9aS)-3-(3-(4-methyl-6-oxo-1,6-dihydropyridin-3-yl)azetidine-1-carbonyl)-5-oxooctahydro-1H-pyrrolo[1,2-a]azepin-6-yl)carbamoyl)benzo [b]thiophen-5-yl)methyl) phosphonic acid]
